The results in this text go back to US20210219549A1 (priority 2018, published 2021).

Where two headings read alike, the source gives them in different places.

Data set [1] relates to Xylella fastidiosa strain Temecula-1 (PDT). Put plainly: microbe, parasite or virus in culture. The class given is cell-based. Particulars: for inhibition at 25 µM / inhibition at 50 µM: Xylella fastidiosa; for inhibition at 25 µM / inhibition: 25 uM; for inhibition at 50 µM: 48 h, read-out: growth inhibition of Temecula1, 50 μM, 48 hrs, relative to untreated control.
Data set [2] deals with grapevine leaves (V. vinifera cv. Carignane). Put plainly: Leaf disc phytotoxicity, chlorophyll loss.
In data set [3] the test system is X. fastidiosa Temecula 1 in V. vinifera cv. Carignane. The class given is in vivo, Vitis vinifera. The note with it: for leaves with PD symptoms: at the end of 3 months, untreated nearly 100%; for progression of PD symptoms: in vivo.
The test system of a further data set is grapevines. Kind of data set: Visible phytotoxicity in greenhouse after foliar spray or soil drench.
The subject of data set [4] is grapevine leaves (V. vinifera cv. Carignane).
In data set [5] the test system is Ca. Liberibacter asiaticus (Las). The class given is in vivo, C. sinensis. The note with it: soil drench 1 g/tree, Hamlins, as early as 20 days post treatment.
The subject of data set [6] is Xf PD strain in V. vinifera grapevines. Details: species or system Vitis vinifera. Particulars: in vivo.
For data set [7], the system named is Ca. Liberibacter asiaticus (Las). The class given is in vivo, C. paradisi. Particulars: soil drench 15 g/tree, grapefruits, as early as 20 days post treatment.

The inhibition is the percentage by which the read-out fell short of the control. In data set [1], `CC(=O)Oc1ccccc1C(=O)Nc1ncc([N+](=O)[O-])s1` [Nitazoxanide] came in with an inhibition at 25 µM of 100%.

As to `Cc1cc2nc3c(=O)[nH]c(=O)nc-3n(C[C@H](O)[C@H](O)[C@H](O)CO)c2cc1N(C)C` [roseoflavin], in data set [1], the inhibition was 100%.

With `CC(Cc1ccc(O)c(O)c1)C(C)Cc1ccc(O)c(O)c1` (centres unmarked) [4,4′-(2,3 dimethyltetramethylene) dipyrocatechol], in data set [1], 25 µM produced 100% inhibition and the inhibition at 50 µM was more than 90%.

As for `Cc1cc2c(C(C)C)c(O)c(O)c(C=O)c2c(O)c1-c1c(C)cc2c(C(C)C)c(O)c(O)c(C=O)c2c1O` [gossypol], the inhibition at 50 µM in data set [1] is more than 90%.

Compound `Cc1nccc2c(C)c3[nH]c4ccccc4c3cc12` [olivacine] had an inhibition in data set [1] of 100%.

For `CC(C)(C)CC(C)(C)c1ccc(OCCOCC[N+](C)(C)Cc2ccccc2)cc1` [Benzethonium chloride], in data set [2] (25 mM), the “phytotoxicity in the chlorophyll degradation assay” value is recorded as “no appreciable phytotoxicity”. The “leaves with PD symptoms” value in data set [3] is on record as approximately 50%. Moreover, in data set [3], the “progression of PD symptoms” value is listed as “significantly reduced as well as delayed progression of PD symptoms”. Further, the visible phytotoxicity result in the data set on grapevines (foliar sprays) and in the data set on grapevines (soil drench) was “not evident” each time. Also, the “loss in chlorophyll content” value in data set [4] is listed as “increasingly significant loss in chlorophyll content”.

With `CC1=CC(=O)c2ccccc2C1=O` [menadione, 2-methyl-1,4-naphthoquinone], the “loss in total chlorophyll content” value in data set [2] (grapevine leaf discs, within 48 hours, all concentrations tested (as low as 25 mM), vs water-treated control) is approximately 40%. The “Las metabolic activity (peroxidase gene expression relative to EF1 alpha)” value in data set [5] and in data set [7] was “measureable suppression of Las metabolic activity” in each case. The “leaves with PD symptoms” value in data set [3] is listed as approximately 50%. The “progression of PD symptoms” value in data set [3] was “significantly reduced as well as delayed progression of PD symptoms”. In addition, the visible phytotoxicity entry in the data set on grapevines (foliar sprays) is “sporadic patches of purple pigmentation and necrosis”; in the data set with grapevines (soil drench), “not evident”. Moreover, the “control of the progression of PD in field conditions” value in data set [6] is reported as “Effective”. Further, 25 µM produced 100% inhibition in data set [1]. In addition, the inhibition at 50 µM in data set [1] was more than 90%.

In turn, `COc1ccc2[nH]c3c(C)c4ccncc4c(C)c3c2c1` [9-methoxyellipticine] registered an inhibition in data set [1] of 100%.
